Experimental data taken from ChEMBL document CHEMBL5053549, “Discovery of Potent and Novel Dual PARP/BRD4 Inhibitors for Efficient Treatment of Pancreatic Cancer” (J Med Chem, 2021).
The source made the active and inactive calls. No cut-off for these calls is given here.

How the values were obtained:
[1] = test system: SW1990; test: Inhibition of homologous recombinant repair in human SW1990 cells assessed as increase in […] expression at 1 to 2 uM after 4 days by Q-PCR analysis; format: functional, cell-based; conditions: dose 1-2 µM, time 4.0 day
[2] = test system: SW1990; test: Inhibition of homologous recombinant repair in human SW1990 cells assessed as reduction in BRCA1 expression at 1 to 2 uM after 4 days by Q-PCR analysis; format: functional, cell-based; conditions: dose 1-2 µM, time 4.0 day
[3] = test system: SW1990; test: Induction of autophagy in human SW1990 cells assessed as increase in LC3B expression at 4 uM incubated for 4 days by immunofluorescence assay; format: functional, cell-based; conditions: time 4.0 day
[4] = test system: SW1990; test: Effect on cell cycle progression in human SW1990 cells assessed as reduction in Olaparib-induced CCND1 expression at 1 uM after 4 days in presence of Olaparib by Q-PCR analysis; format: functional, cell-based; conditions: time 4.0 day
[5] = test system: Mus musculus; test: In vivo inhibition of BRD4 expression in human SW1900 cells xenografted in BALB/c mouse assessed as reversal of Olaparib-induced BRD4 accumulation at 15 mg/kg, ip administered for 28 consecutive days in presence of 45 mg/kg Olaparib by Western blot analysis; format: functional, organism-based; conditions: time 28.0 day

| SMILES | inhibition [1] | inhibition [2] | Activity [3] | Activity [4] | Activity [5] |
| --- | --- | --- | --- | --- | --- |
| CC[C@@H]1C(=O)N(C)c2cnc(N(C)c3ccc(-c4nc5c(C(N)=O)cccc5[nH]4)cc3OC)nc2N1C1CCCC1 | Active | Active |  |  |  |
| Cc1sc2c(c1C)C(c1ccc(Cl)cc1)=N[C@@H](CC(=O)OC(C)(C)C)c1nnc(C)n1-2 |  |  | Active | Active | Active |
